For orientation: IC50 means the concentration at which inhibition is half-maximal.

Like-named read-outs stand apart in the source and are kept apart here.

In this assay the test system is genotype 1b replicon carrying the firefly luciferase reporter. Put plainly: HCV replicon in vitro combination assay, dual and triple combination (Example 1). Conditions: Hepatitis C virus, 72 h, read-out: Individual IC50 values. The format is cell-based. Here is the method:
All compounds were dissolved in 100% DMSO (dimethyl sulfoxide) to a stock concentration of 10 mM and stored at −20° C. Serial 2-fold or 3-fold dilution series of compounds were prepared in 100% DMSO at 400-fold of the final concentration to be used in cell culture experiments that would result in a final DMSO concentration of 0.25% in growth medium.
Drug combination studies were carried out using the transient replicon system. On day one, in vitro transcribed RNA of a genotype 1b replicon carrying the firefly luciferase reporter was transfected into Huh-7-ET-cured cells using Minis transfection reagent. (Lohmann V et al., “Replication of subgenomic hepatitis C virus RNAs in a hepatoma cell line” Science (1999) 285(5424):110-113, which is hereby incorporated by reference in its entirety) Ten thousand transfected cells were cultured in complete DMEM medium [DMEM medium supplemented with 2 mM L-glutamine, 1× non-essential amino acids, 10% heat inactivated FBS and PenStrep (100 units/mL penicillin and 100 ug/mL streptomycin)] in the central 60 wells of 96-well, flat bottom, tissue culture treated plates and cultured at 37° C./5% CO2 humidified incubator for 24 h. The next day, compounds were serially diluted (2× or 3× dilution series) in 100% DMSO, mixed together in a checkerboard fashion and added to cells, and the plates were returned to the incubator for an additional 72 h. […] At the end of the incubation, cells from one set of the plates were lysed and the luciferase activity was measured using a luciferase assay kit. […]
The effects of dual combinations were evaluated using the Bliss independence model. (Greco et al., “The search for synergy: a critical review from a response surface perspective” Pharmacol. Rev. (1995) 47(2):331-385, which is hereby incorporated by reference in its entirety) The experimental data (RLU) was analyzed by using MacSynergy, a three-dimensional analytical method developed by Prichard and Shipman. […] The volume of the peak or depression is calculated to quantify the overall synergy or antagonism produced.
In general terms: In antiviral work, replicon cells carry a viral genome segment that copies itself.

Where [1] appears, read: single compound, genotype 1b transient replicon in Huh-7-ET-cured cells, n = 3.

Consider `CC(C)OC(=O)[C@H](C)N[P@](=S)(OC[C@H]1O[C@@H](n2ccc(=O)[nH]c2=O)[C@](C)(O)[C@@H]1O)Oc1ccccc1` [Compound 1004], for which the IC50 amounted to 357 nM.
Take `COc1ccc2c(O[C@@H]3C[C@H]4C(=O)N[C@]5(C(=O)NS(=O)(=O)C6CC6)C[C@H]5/C=C\CCCCN(C)C(=O)[C@@H]4C3)cc(-c3nc(C(C)C)cs3)nc2c1C` [Compound 3013, TMC-435]: under setting [1], the IC50 was found to be 2.1 nM.
Still for that read-out and setting: the value for `COC(=O)N[C@H](C(=O)N1CCC[C@H]1c1ncc(-c2ccc(-c3ccc(-c4cnc([C@@H]5CCCN5C(=O)[C@@H](NC(=O)OC)C(C)C)[nH]4)cc3)cc2)[nH]1)C(C)C` [Compound 3043, Daclatasvir] was 0.0114 nM.

The values are drawn from patent publication US9012427B2, “Pharmaceutical combinations comprising a thionucleotide analog” (Alios BioPharma, Inc., priority 2012, dated 2015).
